The values below come from patent publication US20080262079A1, “Cannabinoid Compositions and Methods of Use Thereof” (priority 2004, published 2008).

The test system of data set [1] is apolipoprotein E−/− (apoE−/−) mouse model of atherosclerosis. The data set can be described thus: Atherosclerotic lesion size quantification in apoE−/− mice on high cholesterol diet (Sudan IV staining). Format: in vivo. To be noted: 11 weeks high cholesterol diet, THC 1 mg/kg daily orally during last 6 weeks, vs control mice. The protocol:
(§1) Reagents: Synthetic delta-9-THC Marinol® (Dronanbinol, Unimed Pharmaceuticals, Inc.; Marietta Ga., USA) was dissolved at 0.1 mg/ml in 5.5.% fat milk (w/v) in water. THC (1 mg/kg per day) in 1.5% fat milk (w/v) was administered orally within drinking water. Delta-9-THC for in vitro experiments was purchased as a stock solution of 1 mg/ml in methanol (Cambridge Isotype Laboratories, Andover Mass., USA) and were further diluted in warm medium immediately before use. For in vitro transmigration assays, all experiments were performed by adding corresponding dilutions of the THC vehicle (methanol) to the non-THC-treated controls.
Atherosclerotic lesion size quantification: Atherosclerotic lesions within the thoraco-abdominal aorta and aortic roots were analyzed by Sudan IV staining for lipid deposition. Quantification was performed by computer image analysis using the MetaMorph6 software (Zeiss, Feldbach, Switzerland) as previously described. (Kwak et al., Circulation 107, 1033-9 (2003)).

A short description of data set [2]: Blood analysis (cholesterol, triglyceride), body weight and tolerability in THC-treated apoE−/− mice. The protocol:
The anti-atherosclerotic potential of THC was tested in the apolipoprotein E^−/− (apoE^−/−) mouse model of atherosclerosis. The studies presented herein utilized delta-9-Tetrahydrocannoabinol (THC), the major component of marijuana, as its immune-modulating effects have been well-documented in several studies. (See e.g., Srivastava, Immuopharmacology 40, 179-85 (1998); Zhu, J Immunol 165, 373-80 (2000); Yuan J Neuroimmunol 133, 124-31 (2002); Lyman, J Neuroimmunol 23, 73-81 (1989); Malfait, Proc Natl Acad Sci USA 97, 9561-6 (2000)). In addition, this compound is already commercially available, for example as an anti-vomiting drug or for use in treating anorexia. Since potential novel anti-inflammatory therapies should be well tolerated and preferably devoid of psychotropic effects, a low dosage of THC (e.g., 1 mg/kg) was used for daily oral administration. […] (Chesher, et al., Pharmacol Biochem Behav 35:861-4 (1990); Brenneisen, et al., Int J Clin Pharmacol Ther 34, 446-52 (1996); Chan, et al., Fundam Appl Toxicol 30, 109-17 (1996)) To test the therapeutic effect of THC on established atherosclerosis, apoE^−/− mice were fed with a high cholesterol diet for 5 weeks, and THC was then administered during the following 6 weeks, while maintaining the cholesterol diet.
Animals: As a model of in vivo atherosclerosis, 10-week old male apolipoprotein E^−/− mice (apoE^−/−) C57BL/6 mice were used. For histological and atherosclerotic plaque development analysis, mice were fed with a high cholesterol diet (1.25% cholesterol, 0% cholate; Research Diets, New Brunswick N.J., USA) for 5 weeks or for 11 weeks (n=6 per group). THC was administered during the last 6 weeks of the 11 week diet group. In parallel, control mice (littermates) received milk without THC (n =8). For proliferation and cytokine analysis, littermate apoE^−/− mice were divided into 2 groups (control, THC; n=6 per group) and fed with a high cholesterol diet for 4 weeks. THC or milk only was administered during the last 2 weeks of diet. All animal studies were approved by the local Ethical Committee.
Blood Analysis: For measurements of cholesterol and triglyceride content, blood samples were collected at the beginning and the end of the diet. HDL and VLDL cholesterol fractions of sera were measured by fast protein lipid chromatography. THC levels in blood (after 2, 4 and 6 weeks of treatment) were measured by gas chromatography/mass spectrometry with a limit of detection of […] as previously described. (Giroud, et al. Forensic Sci Int 123, 159-64 (2001)).

In data set [3] the test system is Th1 (IFN-γ, IL-12) and Th2 (IL-4, IL-10) cytokines, TGF-β. Put plainly: Cytokine analysis by ELISA in culture supernatants of conA-stimulated lymphoid cells from THC-treated mice. It counts as cell-based, mouse. A general note: An ELISA detects its analyte on a solid surface through an enzyme-linked reagent.
Data set [4] concerns thioglycollate-elicited peritoneal macrophages from apoE−/− mice. The data set can be described thus: Transmigration assay: chemo-attraction of peritoneal macrophages to MCP-1. It counts as cell-based, mouse. To be noted: THC 0.6 ng/ml, 4 hours with 1 ng/ml mIFN-γ, 1 nM MCP-1, 90 minutes. From the text:
Early processes of atherosclerosis involve endothelial dysfunction in response to cardiovascular risk factors, which triggers the recruitment of leukocytes (monocytes/macrophages and T lymphocytes) into the vessel wall. The studies described herein address whether treatment with THC inhibited cell migration using a functional in vitro experiment. Thioglycollate-stimulated peritoneal mouse macrophages were isolated from apoE^−/− mice and assayed for their migration capacity by chemo-attraction to MCP-1.
Reagents: Synthetic delta-9-THC Marinol® (Dronanbinol, Unimed Pharmaceuticals, Inc.; Marietta Ga., USA) was dissolved at 0.1 mg/ml in 5.5.% fat milk (w/v) in water. THC (1 mg/kg per day) in 1.5% fat milk (w/v) was administered orally within drinking water. Delta-9-THC for in vitro experiments was purchased as a stock solution of 1 mg/ml in methanol (Cambridge Isotype Laboratories, Andover Mass., USA) and were further diluted in warm medium immediately before use. […]
Transmigration assay: Macrophages from the peritoneal cavity of thioglycollate-injected apoE^−/− mice were isolated 4 days post-injection and stimulated (in triplicates) for 4 hours with 1 ng/ml mIFN-γ in the presence or absence of 0.6 ng/ml THC (n=4 mice). […] Following 90 minutes of incubation, the number of migrated cells was determined by counting (blind observers) 10 microscopic fields per well.

The subject of the next data set is splenocytes. Put plainly: Proliferation assay (MTS) of conA-stimulated splenocytes isolated from THC-treated mice. Format: cell-based, mouse. The settings on record: cells from THC-treated vs untreated apoE−/− mice, conA 72 hours. The protocol: Proliferation Assay: Splenocytes (SC) or lymph node cells (LNC) were isolated from THC- or milk-treated mice and cultured in 96-well plates at a concentration of 5×10^6 cells/ml. Culture medium consisted of RPMI 1640 supplemented with 25 mM HEPES buffer, 2 mM L-glutamine, 100 U/ml penicillin, 0.1 mg/ml streptomycin, and 10% heat-inactivated fetal bovine serum (FBS). Cells were stimulated in triplicates with varying concentrations of concanavalin (con A; Sigma). After 72 hours, cell proliferation was determined using a non-radioactive MTS cell proliferation assay (Promega) according to the manufacturer's guidelines.

Data set [5] is described as follows: THC levels in blood serum of THC-treated mice (gas chromatography/mass spectrometry). Format: in vivo, mouse. The settings on record: apoE−/− mice, THC 1 mg/kg per day orally. The method, then:
as §1

In data set [6] the test system is murine collagen-induced arthritis, a mouse model of rheumatoid arthritis. To be noted: cited from earlier work.
Where [7] appears, read: THC 1 mg/kg per day orally, apoE−/− mice.
Where [8] appears, read: THC-treated vs control apoE−/− mice.
Where [9] appears, read: THC-treated vs untreated mice, conA 2 μg/ml, supernatant 48 hours, ELISA.

As for `CCCCCc1cc(O)c2c(c1)OC(C)(C)C1CCC(C)=CC21` (centres unmarked) [THC, delta-9-tetrahydrocannabinol], the “progression of atherosclerotic lesions within the aortic roots” value in data set [1] is on record as “significantly reduced progression of atherosclerotic lesions”. Further, in data set [2] (setting [7]), the deaths during treatment result is “None of the THC-treated mice died during treatment” and the unhealthy behavior entry is “none showed unhealthy behavior”. Besides, in data set [2] (setting [8]), the body weights entry is “No differences”, the serum cholesterol levels result is listed as “No differences” and the serum triglyceride levels result is recorded as “No differences”. Also, the IL-4 expression entry in data set [3] (THC-treated mice, conA-stimulated cells, ELISA) was “neither expression of IL-4 nor IL-12 was detectable”. For the same compound, the IL-12 expression entry in data set [3] (THC-treated mice, conA-stimulated cells, supernatant 48 hours, ELISA) is given as “neither expression of IL-4 nor IL-12 was detectable”. In data set [3] (THC-treated vs untreated mice), the “Th1/Th2 balance (ratio of IFN-γ to IL-10 concentration)” value is “shift of the Th1/Th2 balance”. Also, in data set [3] (setting [9]), the IFN-γ production result is given as “significantly less” and the TGF-β production entry is on record as “modest, but not significant, downregulation”. Besides, the IL-10 production result in data set [3] (THC-treated vs untreated mice, conA 2 μg/ml, supernatant 72 hours, ELISA) was “modest, but not significant, downregulation”. The migration of macrophages result in data set [4] is recorded as “significantly inhibited”. Further, the “proliferative responses of in vitro stimulated splenocytes” value in the data set with splenocytes is “significantly reduced”. Also, the “THC concentration in blood serum” value in data set [5] came out at 0.6 ng/mL.

Regarding `C=C(C)[C@@H]1CCC(C)=C[C@H]1c1c(O)cc(CCCCC)cc1O` [cannabidiol], the “proliferation and IFN-γ production of lymph node cells from treated mice (Th1 responses)” value in data set [6] (collagen-induced arthritis mice) is “reduced”. Further, the “chronic inflammation in collagen-induced arthritis” value in data set [6] (mouse model of rheumatoid arthritis) is recorded as “ameliorated chronic inflammation”.
